# System: Chlorella sp. ATCC 7516
# Test: Algal efficacy testing of dry paint films (modified ASTM 5589, 6-well plates)
# Assay type: cell-based
# Protocol: These paints were then diluted with a biocide free acrylic/silicone based paint and mixed to prepare targeted concentrations of biocide combinations for the testing. The total biocides concentrations obtained were 125, 250, 500, 1000, 2000 and 5000 ppm. After biocides addition or dilution, the paints were mixed 90 seconds with the horse power shaker (AXEL 75M3372/Agitateur SO-10MI) until uniformity was achieved. […] After one day, the paints were applied to Schleicher & Schuell filter paper at 280 μm wet film thickness and dried for 3 days at room temperature avoiding direct exposure to sunlight. Square discs (1.8 cm×1.8 cm) were cut out from each panel and were used as the substrate for algal efficacy tests. This sample size allowed for an agar border when the sample disc was placed into the well of the test plate.
# Algal efficacy was tested according to modified ASTM 5589 which is a standard accelerated test method for determining resistance of various coatings (including paints) to algal defacement. To accommodate for high-throughput screening, this method was scaled down from petri plates to 6-well plates. Bold Modified Basal Freshwater Nutrient Solution was used as growth medium for the algal culture and Bold's agar was used for the efficacy testing. A single coupon was placed with a pair of sterile forceps at the center of the agar plug (on top) with the painted surface facing upwards. The algal inoculum was prepared by diluting an exponentially growing culture of Chlorella sp. to 1×10^6 cfu/ml.
# Each well that contains a tested coupon was inoculated with 1750 μl of algal suspension (1×10^6 cfu/ml) making sure that the whole surface (paint film as well as the agar surrounding it) was evenly covered. The plates were incubated at room temp (21° C.-25° C.) with cyclic exposure to 14 hours fluorescent light followed by 10 hours darkness, for a period of three weeks.
# At the end of the incubation period the samples were scored for percent inhibition regarding color intensity compared to the blank sample
# The SI is calculated based on F. C. Kull et. […]
Structure (SMILES),"inhibition at 5000 ppm (504 h, Chlorella, total conc 5000 ppm in paint, three weeks, colour intensity vs blank)","Total conc, ppm (lowest total biocide concentration in paint reaching pass level of 75% inhibition) (Chlorella sp., acrylic/silicone paint film on filter paper, three weeks incubation, pass level ≥75% inhibition)","% inhibition (Chlorella, total conc 1′000 ppm in paint, three weeks, colour intensity vs blank)"
"O=c1[nH]sc2ccccc12 [BIT, 1,2-benzisothiazol-3(2H)-one]",95%,5000 ppm,–
"O=c1[nH]c2c(c(=O)n1C1CCCCC1)CCC2 [LENACIL, 3-Cyclohexyl-6,7-dihydro-1H-cyclopentapyrimidine-2,4-(3H,5H)-dione]",–,–,90%
